Test results: patent US20220331303A1, “USE OF AN OREXIN 2 RECEPTOR AGONIST FOR THE TREATMENT OF EXCESSIVE SLEEPINESS” (Takeda Pharmaceutical Company Limited, priority 2019, published 2022)

Tested on: sleep-deprived healthy volunteers
Experiment: Polysomnography (PSG) of recovery sleep after sleep deprivation in healthy volunteers
Type: in vivo, human
Experimental: Exploratory objectives in sleep-deprived healthy volunteers were as follows: • 1. To compare the effects of Compound A (LD and HD) and modafinil (300 mg) on promoting wakefulness as measured by MWT. • 2. To determine PK-PD relationships for selected PD measures. • 3. To evaluate PK-BP relationships in BP change after Compound A administration. • 4. To compare various polysomnography (PSG) parameters between Day −1 (predose) and Day 2 (recovery sleep). • 5. To determine whether there is any difference in the PSG parameters on Day 2 (recovery sleep) between Compound A and placebo or modafinil. • 6. To evaluate the continuous electroencephalogram (EEG) obtained during the MWTs for power spectra changes for Compound A (LD and HD) versus placebo, Compound A (LD and HD) versus modafinil, and modafinil versus placebo.
During the day before dosing on Day 1, participants were administered the KSS at scheduled timepoints. A practice MWT session was performed on Day 1 treatment period 1 (only once during the entire study) to familiarize subjects with the procedures. Study drug was administered in the clinic in the evening on Day 1 of each treatment period. Subjects underwent the MWT and KSS at specified timepoints after the start of the infusion. Subjects were required to stay awake between the MWT tests. Following completion of the IV infusion on Day 2, subjects underwent an additional MWT test. When the final MWT test and cognitive testing were completed, subjects were allowed to sleep (recovery sleep) for approximately 6 hours. PSG recording was collected during this time. Subjects were discharged from the unit after completion on Day 2 with continuing actigraphy upon discharge (to begin on Day −6 before the next treatment period). The interval between each subsequent treatment period was at least 7 days to ensure that the subject's circadian rhythm had returned to a normal cycle. Subject's vital signs, including BP, were monitored during the dosing and testing period. Blood samples for determination of Compound A plasma concentrations were collected at specified timepoints on Days 1 and 2 of each treatment period. Subjects completed the Columbia-Suicide Severity Rating Scale (C-SSRS) during screening, before study drug administration, and before discharge on Day 2 of each treatment period.
The PSGs assess recovery sleep during the day after the end of the sleep deprivation period. There were no corrections for multiple comparisons. […]

[1] = M: Modafinil 300 mg, recovery sleep
[2] = Modafinil 300 mg, recovery sleep

NC(=O)C[S+]([O-])C(c1ccccc1)c1ccccc1 (stereo not shown) [Modafinil, modafinil, reference compound]
Stage N3 Duration LS Mean (M: Modafinil 300 mg): 51.61 min | Stage N3 Duration LS Mean Difference vs placebo Estimate (M: Modafinil 300 mg): -29.78 min | Stage REM % LS Mean (M: Modafinil 300 mg): 17.46% | Stage REM % LS Mean Difference vs placebo Estimate (M: Modafinil 300 mg): −3.92% | Stage REM Duration LS Mean (M: Modafinil 300 mg): 41.38 min | Stage REM Duration LS Mean Difference vs placebo Estimate (M: Modafinil 300 mg): -25.18 min | Stage Wake % LS Mean (M: Modafinil 300 mg): 23.01% | Stage Wake % LS Mean Difference vs placebo Estimate (M: Modafinil 300 mg): 12.71% | Stage Wake Duration LS Mean (M: Modafinil 300 mg): 60.92 min | Stage Wake Duration LS Mean Difference vs placebo Estimate (M: Modafinil 300 mg): 25.39 min | Total Arousal Index LS Mean (M: Modafinil 300 mg): 14.28 | Total Arousal Index LS Mean Difference vs placebo Estimate (M: Modafinil 300 mg): 4.28 | Total Arousal LS Mean (M: Modafinil 300 mg): 51.11 | Total Arousal LS Mean Difference vs placebo Estimate (M: Modafinil 300 mg): 0.70 | Total Leg Movements LS Mean (M: Modafinil 300 mg): 23.91 | Total Leg Movements LS Mean Difference vs placebo Estimate (M: Modafinil 300 mg): 4.97 | Total Leg Movements N1 LS Mean (M: Modafinil 300 mg): 2.19 | Total Leg Movements N1 LS Mean Difference vs placebo Estimate (M: Modafinil 300 mg): 0.93 | Total Leg Movements N2 LS Mean (M: Modafinil 300 mg): 10.10 | Total Leg Movements N2 LS Mean Difference vs placebo Estimate (M: Modafinil 300 mg): 1.56 | Total Leg Movements N3 LS Mean (M: Modafinil 300 mg): 2.61 | Total Leg Movements N3 LS Mean Difference vs placebo Estimate (M: Modafinil 300 mg): 0.99 | Total Leg Movements REM LS Mean (M: Modafinil 300 mg): 5.75 | Total Leg Movements REM LS Mean Difference vs placebo Estimate (M: Modafinil 300 mg): 0.00 | Total Leg Movements with Awakening LS Mean (M: Modafinil 300 mg): 3.14 | Total Leg Movements with Awakening LS Mean Difference vs placebo Estimate (M: Modafinil 300 mg): 1.39 | Total Leg Movements with Microarous LS Mean (M: Modafinil 300 mg): 3.44 | Total Leg Movements with Microarous LS Mean Difference vs placebo Estimate (M: Modafinil 300 mg): 1.43 | Total Leg Movements with Resp Event LS Mean (M: Modafinil 300 mg): 0.04 | Total Leg Movements with Resp Event LS Mean Difference vs placebo Estimate (M: Modafinil 300 mg): −0.01 | Total Leg Movements without Arousal LS Mean (M: Modafinil 300 mg): 20.42 | Total Leg Movements without Arousal LS Mean Difference vs placebo Estimate (M: Modafinil 300 mg): 3.50 | Total Recording Time LS Mean (M: Modafinil 300 mg): 321.98 min | Total Recording Time LS Mean Difference vs placebo Estimate (M: Modafinil 300 mg): -34.92 min | Total Sleep Time LS Mean (M: Modafinil 300 mg): 224.54 min | Total Sleep Time LS Mean Difference vs Placebo Estimate (M: Modafinil 300 mg): -84.93 min | Wake After Persistent Sleep LS Mean (M: Modafinil 300 mg): 47.63 min | Wake After Persistent Sleep LS Mean Difference vs placebo Estimate (M: Modafinil 300 mg): 13.00 min | Wake After Sleep Onset LS Mean (M: Modafinil 300 mg): 60.92 min | Wake After Sleep Onset LS Mean Difference vs placebo Estimate (M: Modafinil 300 mg): 25.39 min | PSG Awakenings LS Mean [1]: 5.38 | PSG Awakenings LS Mean Difference vs Placebo Estimate [1]: 0.89 | PSG N1 Latency LS Mean [1]: 6.07 min | PSG N1 Latency LS Mean Difference vs Placebo Estimate [1]: 0.71 min | PSG N2 Latency LS Mean [1]: 8.62 min | PSG N2 Latency LS Mean Difference vs Placebo Estimate [1]: 1.98 min | PSG N3 Latency LS Mean [1]: 38.00 min | PSG N3 Latency LS Mean Difference vs Placebo Estimate [1]: 10.73 min | PSG Per. Slp LS Mean [1]: 26.19 min | PSG Per. Slp LS Mean Difference vs Placebo Estimate [1]: 19.32 min | PSG REM Latency LS Mean [1]: 71.67 min | PSG REM Latency LS Mean Difference vs Placebo Estimate [1]: 16.73 min | PSG Sleep Efficiency LS Mean [1]: 68.28% | PSG Sleep Efficiency LS Mean Difference vs Placebo Estimate [1]: −18.44% | PSG Sleep Onset LS Mean [1]: 5.99 min | PSG Sleep Onset LS Mean Difference vs Placebo Estimate [1]: 2.00 min | PSG Spontaneous Arousal Index LS Mean [1]: 11.91 | PSG Spontaneous Arousal Index LS Mean Difference vs Placebo Estimate [1]: 2.98 | PSG Spontaneous Arousal LS Mean [1]: 42.14 | PSG Spontaneous Arousal LS Mean Difference vs Placebo Estimate [1]: −2.93 | PSG Stage N1 % LS Mean [1]: 10.14% | PSG Stage N1 % LS Mean Difference vs Placebo Estimate [1]: 4.05% | PSG Stage N1 Duration LS Mean [1]: 19.12 min | PSG Stage N1 Duration LS Mean Difference vs Placebo Estimate [1]: 0.72 min | PSG Stage N2 % LS Mean [1]: 50.94% | PSG Stage N2 % LS Mean Difference vs Placebo Estimate [1]: 4.24% | PSG Stage N2 Duration LS Mean [1]: 111.09 min | PSG Stage N2 Duration LS Mean Difference vs Placebo Estimate [1]: -32.99 min | PSG Stage N3 % LS Mean [1]: 21.61% | PSG Stage N3 % LS Mean Difference vs Placebo Estimate [1]: −4.22% | PSG sleep efficiency, LS mean difference vs placebo [2]: −18.44% | PSG spontaneous arousal index, LS mean difference vs placebo [2]: 2.98 | PSG stage N1 %, LS mean difference vs placebo [2]: 4.05% | PSG stage N2 duration, LS mean difference vs placebo [2]: -32.99 min | PSG stage N3 %, LS mean difference vs placebo [2]: −4.22% | PSG stage N3 duration, LS mean difference vs placebo [2]: −29.78 | PSG stage REM %, LS mean difference vs placebo [2]: −3.92% | PSG stage REM duration, LS mean difference vs placebo [2]: -25.18 min | PSG stage wake %, LS mean difference vs placebo [2]: 12.71% | PSG stage wake duration, LS mean difference vs placebo [2]: 25.39 min | PSG time to per. slp (persistent sleep), LS mean difference vs placebo [2]: 19.32 min | PSG total arousal index, LS mean difference vs placebo [2]: 4.28 | PSG total recording time, LS mean difference vs placebo [2]: -34.92 min | PSG total sleep time, LS mean difference vs placebo [2]: -84.93 min | PSG wake after sleep onset, LS mean difference vs placebo [2]: 25.39 min
